Test results from PMC5224518, “Hydrophobic mismatch demonstrated for membranolytic peptides, and their use as molecular rulers to measure bilayer thickness in native cells” (Scientific Reports, 2015).
Like-named read-outs stand apart in the source and are kept apart here. Ends that are not written are not given here.

How the values were obtained:
[1] = system: Enterococcus faecalis (DSM 2570); assay type: cell-based
Method: (§1) Antimicrobial activity was measured by a standard MIC assay, carried out with Gram-positive Staphylococcus aureus (DSM 1104) and Enterococcus faecalis (DSM 2570) and with Gram-negative Escherichia coli (DSM 1103) and Pseudomonas aeruginosa (DSM 1117), as previously reported. Briefly, bacteria were grown in Müller-Hinton medium at 37°C overnight. Microtiter plates (96 wells of 100 μL) were filled with 50 μL of Müller-Hinton medium, and serial 2-fold dilutions of peptides were arranged in quadruple. The two final rows of each plate remained without peptide, so that the penultimate data point served as the positive control (no peptide), and the final one as the negative control (not inoculated). 50 μL of bacterial suspension (OD = 0.2) was added to the wells (except for the final row of each plate) to give a final concentration of 10^6 colony-forming units (CFU)/mL.

[2] = system: Escherichia coli (DSM 1103); assay type: cell-based
Method: as §1

[3] = system: Pseudomonas aeruginosa (DSM 1117); assay type: cell-based
Method: as §1

[4] = system: Staphylococcus aureus (DSM 1104); assay type: cell-based
Method: as §1

[5] = Vesicle leakage assay (ANTS/DPX fluorescence dequenching); assay type: biochemical; settings: for percentage of leakage: P/L = 1:12.5, after 10 minutes, 100 μM lipid, 30°C, pH 7.5, relative to Triton X-100 = 100%
Method: For the leakage experiments, the buffer in which the vesicles were prepared contained the fluorophor ANTS (12.5 mM), the quencher DPX (45 mM), 50 mM NaCl, and 10 mM HEPES (pH 7.5). Liposomes were prepared by co-dissolving PC/PG 1:1 (mol/mol) mixtures of the lipids with different chain length in CHCl3/MeOH (3:1 v/v), together with 10^−2 mol% Rhod-PE by which the lipid loss during vesicle preparation (extrusion and gel filtration, see below) could be quantified. The peptide-to-lipid ratio (P/L) is given in mol/mol. The lipid mixture was dried under N2(g) and left to dry under vacuum overnight. The obtained thin film was then re-suspended in the buffer which contained the fluorophor and the quencher by vigorous vortexing, followed by 10 freeze-thaw cycles. Large unilamellar vesicles (LUV) were obtained by 21-fold extrusion (Avanti Mini Extruder; Avanti Polar Lipids, Alabaster, AL) of the liposomes through a Nuclepore polycarbonate membrane (pore size 100 nm, Whatman - GE Healthcare Europe, Freiburg, Germany) at a temperature 20°C above the lipid phase transition. Unencapsulated dye was removed by gel filtration using spin columns filled with Sephacryl 100-HR (Sigma-Aldrich, Taufkirchen, Germany), and equilibrated with an elution buffer (150 mM NaCl, 10 mM HEPES, pH 7.5) which balances the internal vesicle osmolarity.
Leakage of entrapped ANTS was monitored by fluorescence dequenching of ANTS[76]. Fluorescence measurements were performed in a thermostatted cuvette with constant stirring at 30°C in the same buffer as used for gel filtration on a FluoroMax2 spectrofluorimeter (HORIBA Jobin Yvon, Unterhaching, Germany) by setting the ANTS emission to 510 nm (5 nm slit) and its excitation to 355 nm (5 nm slit). The vesicles (100 μM lipid final concentration) of the desired composition were added to the cuvette containing the peptide at the P/L ratio to be tested (from 1 mM stock solutions in water). The level of 0% leakage corresponded to the fluorescence of the vesicles immediately after their addition, while 100% leakage was the fluorescence value obtained after addition of a 0.25 vol-% Triton X-100 after 10 min.

[6] = Circular dichroism, secondary structure deconvolution (CONTIN-LL); assay type: physicochemical; settings: CD, P/L 1:50, 30 μM peptide, 30°C; for Helicity: DMPC/DMPG (3:1) small unilamellar vesicles, 10 mM phosphate buffer pH 7, minimum helical content; for Percentage of secondary structure element: α-helix: DMPC/DMPG (3:1) vesicles
Method: CD samples were prepared by co-solubilizing DMPC and DMPG (3:1 mol/mol) in chloroform/methanol 3:1 (v/v). After drying, the lipid film was dispersed in phosphate buffer (10 mM, pH 7) and homogenized by vortexing. Small unilamellar vesicles (SUVs) for CD samples were generated by sonication in a high-power ultrasonic bath with a beaker-shaped sonotrode (UTR 200, Hielscher, Germany). CD spectra were recorded on a J-815 spectropolarimeter (JASCO, Groß-Umstadt, Germany) between 260 and 185 nm at 0.1-nm intervals, using 1-mm quartz glass cells (Suprasil; Hellma, Müllheim, Germany) at 20°C, as reported previously. The peptides were measured at 20°C in 10 mM sodium phosphate buffer (pH 7.0) and at 30°C in lipid vesicles composed of DMPC/DMPG (3:1). Typical peptide concentrations of the final samples in phosphate buffer was 36–72 μM, and for the vesicle samples 30 μM with a peptide-to-lipid molar ratio (P/L) of 1:50. An averaged baseline of the pure solvent or lipid matrix, respectively, was subtracted. Finally, the spectra were converted to mean residue ellipticities (MRE) by using the weighed-in peptide amount and the volume of the sample for concentration determination. […] Although this ambiguity in peptide concentration leads most probably to an underestimation of the magnitude of the MRE values we attempted a quantitative deconvolution of CD data to estimate the relative contents of different secondary structure elements. If part of the weighted material was not peptide, this leads to an underestimating of the MRE, which also leads to an underestimation of the helical content. The values obtained are thus the minimum helical content of each peptide.
Secondary structure estimation from CD spectra was performed using the CONTIN-LL program, which is based on the ridge regression algorithm. The algorithm is provided by the DICHROWEB on-line server. The quality of the fit between experimental and back-calculated spectrum corresponding to the estimated secondary structure fractions was assessed from the normalized root mean square deviation (NRMSD), with a value <0.1 considered as a good fit[74].

[7] = DErPC/DErPG 1:1 vesicles (34.4/34.4 Å)
[8] = DErPC/POPG 1:1 vesicles (34.4/27.8 Å)
[9] = DMoPC/DOPG 1:1 vesicles (hydrophobic thickness 19.2/27.5 Å)
[10] = POPC/DErPG 1:1 vesicles (27.1/34.4 Å)
[11] = POPC/POPG 1:1 vesicles (27.1/27.8 Å)

Substance	MIC ([1]; DSM 2570, 20 h) [µM]	MIC ([2]; DSM 1103, 20 h) [µM]	MIC ([3]; DSM 1117, 20 h) [µM]	MIC ([4]; DSM 1104, 20 h) [µM]	also measured
KIAGKIAKIAGKIAK-NH2 [KIA15]	>595	>149	>149	>149	antimicrobial activity (in words) ([2]; E. coli DSM 1103, MIC assay): completely inactive; percentage of leakage [5, 7]: 0%; percentage of leakage [5, 8]: 3%; percentage of leakage [5, 9]: 3%; percentage of leakage [5, 10]: 2%; percentage of leakage [5, 11]: 2%; leakage ([5]; POPC/POPG vesicles, P/L = 1:50, time course over 600 s, Triton X-100 = 100%): < 2%; Helicity [6]: 69%; Percentage of secondary structure element: α-helix [6]: 68.7%
KIAGKIAKIAGKIAKIAGK-NH2 [KIA19]	>481	15	120	>120	–
GMASKAGAIAGKIAKVALKAL-NH2 [PGLa, reference compound]	–	–	–	–	MIC ([1]; E. faecalis, same assay as Table 2, given in µM): >477 µM; MIC ([2]; E. coli, same assay as Table 2, given in µM): 15 µM; MIC ([3]; P. aeruginosa, same assay as Table 2, given in µM): 119 µM; MIC ([4]; S. aureus, same assay as Table 2, given in µM): 30 µM
KIAGKIAKIAGKIAKIAGKIAKIAGKIA-NH2 [KIA28]	5.2	2.6	5.2	2.6	–
KIAGKIAKIAGKIAKIAGKIAKIA-NH2 [KIA24]	24	1.5	6.0	1.5	–
KIAGKIAKIAGKIAKIAGKIA-NH2 [KIA21]	443	1.7	28	3.5	–
KIAGKIAKIAGKIAKIAGKIAKIAGK-NH2 [KIA26]	22	1.4	5.6	2.8	–
KIAGKIAKIAGKIAKIAGKIAK-NH2 [KIA22]	414	1.6	13	6.5	antimicrobial activity (in words) ([1]; E. faecalis DSM 2570, MIC assay): hardly any activity; antimicrobial activity (in words) ([3]; P. aeruginosa DSM 1117, MIC assay): somewhat active; percentage of leakage [5, 7]: 6%; percentage of leakage [5, 8]: 85%; percentage of leakage [5, 9]: 100%; percentage of leakage [5, 10]: 26%; percentage of leakage [5, 11]: 100%; kinetics (rate) of leakage ([5]; POPC/POPG vesicles, P/L = 1:50, time course over 600 s): slower kinetics; Helicity [6]: 68%; Percentage of secondary structure element: α-helix [6]: 67.7%
KIAGKIAKIAGKIA-NH2 [KIA14]	>657	>164	>164	>164	–
KIAGKIAKIAGKIAKIA-NH2 [KIA17]	>537	17	134	134	–
